{"source": "patent US20040254224A1", "about": "“Medicaments” (priority 2001, published 2004)", "molecular_target": "HM74 (Homo sapiens, UniProt P49019)", "sequence (P49019 whole entry)": "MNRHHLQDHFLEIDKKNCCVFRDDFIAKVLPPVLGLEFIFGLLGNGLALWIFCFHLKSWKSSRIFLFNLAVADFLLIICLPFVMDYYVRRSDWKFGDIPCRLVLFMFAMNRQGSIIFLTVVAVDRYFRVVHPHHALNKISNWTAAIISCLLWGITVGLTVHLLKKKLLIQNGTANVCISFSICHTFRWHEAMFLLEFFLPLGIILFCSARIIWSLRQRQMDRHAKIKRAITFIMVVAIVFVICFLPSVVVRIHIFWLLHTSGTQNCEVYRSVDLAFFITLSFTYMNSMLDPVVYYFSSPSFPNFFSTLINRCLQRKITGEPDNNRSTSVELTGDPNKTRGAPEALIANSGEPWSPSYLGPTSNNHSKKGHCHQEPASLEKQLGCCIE", "conditions": "membranes from HM74-expressing HEK293T cells, co-expressed with Go1α", "protocol": "HEK293T cells (HEK293 cells stably expressing the SV40 large T-antigen) were maintained in DMEM containing 10% (v/v) foetal calf serum and 2 mM glutamine. Cells were seeded in 60 mm culture dishes and grown to 60-80% confluency (18-24 h) prior to transfection with pCDNA3 containing the relevant DNA species using Lipofectamine reagent. For transfection, 3 μg of DNA was mixed with 10 μl of Lipofectamine in 0.2 ml of Opti-MEM (Life Technologies Inc.) and was incubated at room temperature for 30 min prior to the addition of 1.6 ml of Opti-MEM. Cells were exposed to the Lipofectamine/DNA mixture for 5 h and 2 ml of 20% (v/v) newborn calf serum in DMEM was then added. Cells were harvested 48-72 h after transfection.\nPlasma membrane-containing P2 particulate fractions were prepared from cell pastes frozen at −80° C. after harvest. All procedures were carried out at 4° C. Cell pellets were resuspended in 1 ml of 10 mM Tris-HCl and 0.1 mM EDTA, pH 7.5 (buffer A) and by homogenisation for 20 s with a polytron homogeniser followed by passage (5 times) through a 25-guage needle. Cell lysates were centrifuged at 1,000 g for 10 min in a microcentrige to pellet the nuclei and unbroken cells and P2 particulate fractions were recovered by microcentrifugation at 16,000 g for 30 min. P2 particulate fractions were resuspended in buffer A and stored at −80° C. until required."}
{"smiles": "O=C(O)CNC(=O)c1cccnc1", "note": "[nicotinuric acid]", "values": [{"measurement": "stimulation of [35S]GTPγS binding", "result": "not found to alter basal"}]}
